Experimental data: ChEMBL document CHEMBL2216752, “Carnitine palmitoyltransferase (CPT) modulators: a medicinal chemistry perspective on 35 years of research” (J Med Chem, 2011)
pIC50: −log10 of the molar value.

Key:
[1] = Inhibition of Phospholipase A2
Homo sapiens [2] = species: Homo sapiens; test: Increase in left ventricular ejection fraction in CHF patient at 80 mg/day for 3 months; type: functional, Heart left ventricle
Homo sapiens [3] = species: Homo sapiens; test: Increase in stroke volume in CHF patient at 80 mg/day for 3 months; type: functional
Homo sapiens [4] = species: Homo sapiens; test: Increase in maximum cardiac output in CHF patient at 80 mg/day for 3 months measured during exercise; type: functional
Homo sapiens [5] = test: Increase in glucose MCR in NIDD patient at 50 mg, po administered as single dose; type: functional
Homo sapiens [6] = test: Reduction in whole body fat oxidation in human at 600 mg, po for 5 days; type: functional; set-up: scale not given: the % may be the effect or the level left
Homo sapiens [7] = test: Reduction in fat oxidation in NIDD patient at 100 mg/day, po for 3 days administered as single dose; type: functional; set-up: scale not given: the % may be the effect or the level left
Homo sapiens [8] = test: Reduction in glucose appearance rate in NIDD patient at 100 mg/day, po for 3 days administered as single dose; type: functional; set-up: scale not given: the % may be the effect or the level left
Homo sapiens [9] = test: Increase in metabolic clearance of glucose in NIDD patient at 50 mg, po administered as single dose; type: functional
Homo sapiens [10] = test: Increase in carbohydrate oxidation in NIDD patient at 100 mg/day, po for 3 days administered as single dose; type: functional
Homo sapiens [11] = test: Reduction in plasma LD/HDL ratio in NIDD patient at 12.5 to 50 mg/day, po for 14 days; type: functional; set-up: scale not given: the % may be the effect or the level left
Homo sapiens [12] = test: Reduction in plasma TG level in NIDD patient at 12.5 to 50 mg/day, po for 14 days; type: functional; set-up: scale not given: the % may be the effect or the level left
Homo sapiens [13] = test: Reduction in beta-hydroxy butyrate level in NIDD patient at 12.5 to 50 mg/day, po for 14 days; type: functional; set-up: scale not given: the % may be the effect or the level left
Homo sapiens [14] = test: Reduction in FBG level in NIDD patient at 12.5 to 50 mg/day, po for 14 days; type: functional; set-up: scale not given: the % may be the effect or the level left
Homo sapiens [15] = test: Reduction in plasma TG level in NIDD patient at 50 to 200 mg/day, po bid for 3 days before meals; type: functional; set-up: scale not given: the % may be the effect or the level left
Homo sapiens [16] = test: Increase in plasma FFAs level in NIDD patient at 50 to 200 mg/day, po bid for 3 days before meals; type: functional
Homo sapiens [17] = test: Reduction in plasma cholesterol level in NIDD patient at 50 to 200 mg/day, po bid for 3 days before meals; type: functional; set-up: scale not given: the % may be the effect or the level left
Homo sapiens [18] = test: Reduction in BHB level in NIDD patient at 50 to 200 mg/day, po bid for 3 days before meals; type: functional; set-up: scale not given: the % may be the effect or the level left
Homo sapiens [19] = test: Reduction in basal hepatic glucose production in NIDD patient at 50 to 200 mg/day, po bid for 3 days before meals; type: functional; set-up: scale not given: the % may be the effect or the level left
Homo sapiens [20] = test: Reduction in fasting plasma glucose in NIDD patient at 50 to 200 mg/day, po bid for 3 days before meals; type: functional; set-up: scale not given: the % may be the effect or the level left
Homo sapiens [21] = test: Reduction in postprandial glucose in NIDD patient at 125 mg/day, po for 4 days (reference value: 10.5 mM); type: functional
Rattus norvegicus [22] = test: Reduction in fasting serum FFAs level in high fat diet fed STZ-treated rat at 12.5 mg/kg/day, po for up to 4 weeks measured 3 days to 1 week post dose; type: functional; set-up: scale not given: the % may be the effect or the level left
Rattus norvegicus [23] = test: Reduction in plasma TG in high fat diet fed STZ-treated rat at 12.5 mg/kg/day, po for up to 4 weeks measured 3 days to 1 week post dose; type: functional; set-up: scale not given: the % may be the effect or the level left
Rattus norvegicus [24] = test: Reduction in hepatic glucose production in STZ-treated rat at 12.5 to 25 mg/kg, po; type: functional; set-up: scale not given: the % may be the effect or the level left; details: dose mg/kg 12.5-25
Rattus norvegicus [25] = test: Reduction in fasting plasma glucose level in STZ-treated rat at 12.5 to 25 mg/kg, po; type: functional; set-up: scale not given: the % may be the effect or the level left; details: dose mg/kg 12.5-25
Rattus norvegicus [26] = test: Inhibition of CPT1 activity in blood KB level in STZ-treated fasted rat at 0.2 to 18 mg/kg, po; type: functional; details: dose mg/kg 0.2-18
Rattus norvegicus [27] = test: Reduction in blood KB level in STZ-treated fasted rat at 0.2 to 18 mg/kg, po; type: functional; set-up: scale not given: the % may be the effect or the level left; details: dose mg/kg 0.2-18
Rattus norvegicus [28] = test: Reduction in blood glucose in STZ-treated fasted rat at 0.2 to 18 mg/kg, po measured 4 hrs post dose; type: functional; set-up: scale not given: the % may be the effect or the level left; details: dose mg/kg 0.2-18
Mus musculus [29] = test: Reduction in glucose excretion in db/db mouse at 10 to 20 mg/kg/day, po dosed life long through food-admix; type: functional; set-up: scale not given: the % may be the effect or the level left
Mus musculus [30] = test: Reduction in urine volume in db/db mouse at 10 to 20 mg/kg/day, po dosed life long through food-admix; type: functional; set-up: scale not given: the % may be the effect or the level left
Mus musculus [31] = test: Reduction in daily water intake in db/db mouse at 10 to 20 mg/kg/day, po dosed life long through food-admix; type: functional; set-up: scale not given: the % may be the effect or the level left
Mus musculus [32] = test: Reduction in fasting glucose in db/db mouse at 10 to 20 mg/kg/day, po dosed life long through food-admix; type: functional; set-up: scale not given: the % may be the effect or the level left
Mus musculus [33] = test: Reduction in FBG level in db/db mouse at 50 mg/kg, po; type: functional; set-up: scale not given: the % may be the effect or the level left
Mus musculus [34] = test: Reduction in FBG level in db/db mouse at 10 mg/kg, po; type: functional; set-up: scale not given: the % may be the effect or the level left
MOLM-13 = test: Cytotoxicity against human MOLM13 cells assessed as reduction in cell viability; type: functional, cell-based
[35] = Cytotoxicity against human OCI-AML3 cells assessed as reduction in cell viability; type: functional, cell-based; details: OCI-AML-3
Hepatocyte = test: Inhibition of fatty acid synthesis in rat hepatocytes; type: functional, cell-based
Sus scrofa = test: Reduction in plasma glucose in 48 hrs fasted pig at 20 mg, iv measured 5 hrs post dose; type: functional; set-up: scale not given: the % may be the effect or the level left
Rattus norvegicus [36] = test: Reduction in blood 3-OH-butyrate in Wistar rat at 60 mg/kg, iv over 5.5 hrs (reference value: 1 mM); type: functional
Rattus norvegicus [37] = test: Reduction in glucose carbon recycling in Wistar rat at 60 mg/kg, iv over 5.5 hrs; type: functional; set-up: scale not given: the % may be the effect or the level left
Rattus norvegicus [38] = test: Reduction in whole body glucose utilization in Wistar rat at 60 mg/kg, iv over 5.5 hrs; type: functional; set-up: scale not given: the % may be the effect or the level left
Rattus norvegicus [39] = test: Reduction in plasma glucose in Wistar rat at 60 mg/kg, iv over 5.5 hrs; type: functional; set-up: scale not given: the % may be the effect or the level left

**Q.** With `COC(=O)C1(C(F)CCCCc2ccccc2)CO1` (configuration not stated) as the molecule, how does the pIC50 [1] read?
**A.** 5.59

**Q.** For `CCOC(=O)C1(CCCCCCOc2ccc(Cl)cc2)CO1` (racemic) [rac-ETOMOXIR], which Activity (Homo sapiens [2]) is on record?
**A.** 25%

**Q.** And the Activity (Homo sapiens [3])?
**A.** 30%

**Q.** What about the Activity (Homo sapiens [4]) of the same molecule?
**A.** 38%

**Q.** What about the Activity (Homo sapiens [5]) of the same molecule?
**A.** 33%

**Q.** What about the Activity (Homo sapiens [6]) of the same molecule?
**A.** 13.7%

**Q.** And the Activity (Homo sapiens [7])?
**A.** 18%

**Q.** And the Activity (Homo sapiens [8])?
**A.** 8%

**Q.** What about the Activity (Homo sapiens [9]) of the same molecule?
**A.** 30%

**Q.** What about the Activity (Homo sapiens [10]) of the same molecule?
**A.** 58%

**Q.** What about the Activity (Homo sapiens [11]) of the same molecule?
**A.** 35%

**Q.** What about the Activity (Homo sapiens [12]) of the same molecule?
**A.** 30%

**Q.** And the Activity (Homo sapiens [13])?
**A.** 50%

**Q.** And the Activity (Homo sapiens [14])?
**A.** <=45%

**Q.** What about the Activity (Homo sapiens [15]) of the same molecule?
**A.** 54%

**Q.** What about the Activity (Homo sapiens [16]) of the same molecule?
**A.** 52%

**Q.** And the Activity (Homo sapiens [17])?
**A.** 24%

**Q.** And the Activity (Homo sapiens [18])?
**A.** 44%

**Q.** And the Activity (Homo sapiens [19])?
**A.** 18%

**Q.** What about the Activity (Homo sapiens [20]) of the same molecule?
**A.** 18%

**Q.** What about the Activity (Homo sapiens [21]) of the same molecule?
**A.** 8.3 mM

**Q.** And the Activity (Rattus norvegicus [22])?
**A.** 56%

**Q.** And the Activity (Rattus norvegicus [23])?
**A.** 67%

**Q.** What about the Activity (Rattus norvegicus [24]) of the same molecule?
**A.** 32%

**Q.** What about the Activity (Rattus norvegicus [25]) of the same molecule?
**A.** 32%

**Q.** And the “inhibition (INH)” value (Rattus norvegicus [26])?
**A.** <=99%

**Q.** What about the Activity (Rattus norvegicus [27]) of the same molecule?
**A.** 87%

**Q.** What about the Activity (Rattus norvegicus [28]) of the same molecule?
**A.** 40%

**Q.** And the Activity (Mus musculus [29])?
**A.** 70%

**Q.** What about the Activity (Mus musculus [30]) of the same molecule?
**A.** 70%

**Q.** And the Activity (Mus musculus [31])?
**A.** 50%

**Q.** What about the Activity (Mus musculus [32]) of the same molecule?
**A.** 50%

**Q.** What about the Activity (Mus musculus [33]) of the same molecule?
**A.** 55%

**Q.** And the Activity (Mus musculus [34])?
**A.** 43%

**Q.** What about the pIC50 (MOLM-13) of the same molecule?
**A.** 4.29

**Q.** And the pIC50 [35]?
**A.** 4.29

**Q.** And the pIC50 (Hepatocyte)?
**A.** 5.70

**Q.** For `O=C(O)C1(CCCCCCOc2ccc(Cl)cc2)CO1` (racemic), which Activity (Sus scrofa) is on record?
**A.** 50%

**Q.** And the Activity (Rattus norvegicus [36])?
**A.** 0.03 mM

**Q.** And the Activity (Rattus norvegicus [37])?
**A.** 30%

**Q.** What about the Activity (Rattus norvegicus [38]) of the same molecule?
**A.** 14%

**Q.** What about the Activity (Rattus norvegicus [39]) of the same molecule?
**A.** 25%
